Assay results published in the supplement of paper PMC9938120.

What was measured:
Experiment in all cases: drug sensitivity score (DSS3, normalised partial AUC of % inhibition dose-response) (DSS (score)); higher = more sensitive (stronger inhibition of viability); extreme values may be limits of the assay
FMOC25_1 = patient-derived low-grade serous ovarian cancer cells; details: 72 h; library: FO4B; assay format: 2D, 384-well, CellTiter-Glo
Summary of the method: (§1)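 On 384-well flat clear-bottom plates carrying compounds at five concentrations across a 10,000-fold range, patient-derived ovarian cancer cells below passage 10 were incubated for 72 h at 37 °C with 5% CO2. CellTiter-Glo readout of viability was processed in Breeze. A higher drug sensitivity score, defined as the partial area under the percent-inhibition dose-response curve divided by the log of the upper asymptote, means greater sensitivity.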

FMOC22 = patient-derived mucinous ovarian cancer cells; details: 72 h; library: FO5A; assay format: 2D, 384-well, CellTiter-Glo
Summary of the method: as §1

FMOC24 = patient-derived high-grade serous ovarian cancer cells; details: 72 h; library: FO5A; assay format: 2D, 384-well, CellTiter-Glo
Summary of the method: as §1

FMOC02_3 = patient-derived low-grade serous ovarian cancer cells; details: 72 h; library: FO5A; assay format: 2D, 384-well, CellTiter-Glo
Summary of the method: as §1

FMOC03 = patient-derived mucinous ovarian cancer cells; details: 72 h; library: FO5A; assay format: 2D, 384-well, CellTiter-Glo
Summary of the method: as §1

FMOC09 = patient-derived high-grade serous ovarian cancer cells; details: 72 h; library: FO5A; assay format: 2D, 384-well, CellTiter-Glo
Summary of the method: as §1

FMOC06 = patient-derived mucinous ovarian cancer cells; details: 72 h; library: FO5A; assay format: 2D, 384-well, CellTiter-Glo
Summary of the method: as §1

FMOC14 = patient-derived high-grade serous ovarian cancer cells; details: 72 h; library: FO5A; assay format: 2D, 384-well, CellTiter-Glo
Summary of the method: as §1

FMOC25_2 = patient-derived low-grade serous ovarian cancer cells; details: 72 h; library: FO5A; assay format: 2D, 384-well, CellTiter-Glo
Summary of the method: as §1

FMOC02_2 = patient-derived low-grade serous ovarian cancer cells; details: 72 h; library: FO5A; assay format: 2D, 384-well, CellTiter-Glo
Summary of the method: as §1

`CC(=O)NCC(=O)N1[C@@H]2CC[C@H]1c1ccc(Nc3ncc(C(F)(F)F)c(NC4CCC4)n3)cc12` showed a drug sensitivity score (FMOC25_1) of 9.1.

With `CC(C)CC(=O)Nc1n[nH]c2c1CN(C(=O)C1CCN(C)CC1)C2(C)C` the drug sensitivity score (FMOC25_1) was 5.5.

Work on `CCNC(=O)C[C@@H]1N=C(c2ccc(Cl)cc2)c2cc(OC)ccc2-n2c(C)nnc21` yielded a drug sensitivity score (FMOC25_1) of 3.8.

Work on `CCc1cc(Nc2nccc(-c3c(-c4ccc(OC)c(C(=O)Nc5c(F)cccc5F)c4)nc4ccccn34)n2)c(OC)cc1N1CCC(N2CCN(S(C)(=O)=O)CC2)CC1` yielded a drug sensitivity score (FMOC25_1) of 3.9.

Compound `CN(c1ccccc1CNc1nc(Nc2ccc3c(c2)CC(=O)N3)ncc1C(F)(F)F)S(C)(=O)=O` has a drug sensitivity score (FMOC25_1) of 7.

`CN1CCC(COc2cnc(-c3cccc(Cn4nc(-c5cccc(C#N)c5)ccc4=O)c3)nc2)CC1` was tested, and the drug sensitivity score (FMOC25_1) was 0.

Compound `COCC(=O)NC/C=C/c1ccc2ncnc(Nc3ccc(Oc4ccc(C)nc4)c(C)c3)c2c1` has a drug sensitivity score (FMOC25_1) of 3.2.

Compound `COc1ccc(-c2cc3c(C)nc(N)nc3n([C@H]3CC[C@H](OCCO)CC3)c2=O)cn1` has a drug sensitivity score (FMOC25_1) of 23.8.

In the case of `CS(=O)(=O)N1CCc2c(-c3cnc(N)nc3)nc(N3CCOCC3)nc21`, the drug sensitivity score (FMOC25_1) was 10.5.

For `Cc1c(NC(=O)OC[C@@H]2COCCN2)cn2ncnc(Nc3ccc4c(cnn4Cc4cccc(F)c4)c3)c12`, the drug sensitivity score (FMOC25_1) was 9.1.

Compound `Cc1ccc2nc(CN(CCN(Cc3nc4ccc(C)cc4[nH]3)Cc3nc4ccc(C)cc4[nH]3)Cc3nc4ccc(C)cc4[nH]3)[nH]c2c1` has a drug sensitivity score (FMOC25_1) of 3.9.

Compound `Cn1cc(-c2ccc3nnc(C(F)(F)c4ccc5ncccc5c4)n3n2)cn1` has a drug sensitivity score (FMOC25_1) of 0.

`O=C(NOCC1CC1)c1ccc(F)c(F)c1Nc1ccc(I)cc1Cl` showed a drug sensitivity score (FMOC25_1) of 7.5.

`O=C1NC(=O)/C(=C/c2ccc3nccc(-c4ccncc4)c3c2)S1` gave a drug sensitivity score (FMOC25_1) of 9.8.

`O=c1cc(N2CCOCC2)oc2c(-c3ccccc3)cccc12` showed a drug sensitivity score (FMOC25_1) of 9.1.

`OCCn1cc(-c2cnc3nnn(Cc4ccc5ncccc5c4)c3n2)cn1` was tested, and the drug sensitivity score (FMOC25_1) was 0.

`Oc1c2ccccc2c2c3c(cccc13)N=N2` was tested, and the drug sensitivity score (FMOC25_1) was 4.3.

Work on `CC[C@@H](C(=O)[C@@H](C)[C@@H](O)[C@H](C)[C@@H]1O[C@@H]([C@@H](CC)C(=O)O)CC[C@@H]1C)[C@H]1O[C@]2(C=C[C@@H](O)[C@]3(CC[C@@](C)([C@H]4CC[C@](O)(CC)[C@H](C)O4)O3)O2)[C@H](C)C[C@@H]1C` [Salinomycin] yielded a drug sensitivity score (FMOC22) of 10.6, a drug sensitivity score (FMOC24) of 26.1 and a drug sensitivity score (FMOC02_3) of 1.1. For the same compound, the drug sensitivity score (FMOC03) was 12.5, the drug sensitivity score (FMOC09) was 16.4 and the drug sensitivity score (FMOC06) was 16.6. The drug sensitivity score (FMOC14) was 23.3, the drug sensitivity score (FMOC25_2) was 16.5 and the drug sensitivity score (FMOC02_2) was 15.4.

With `CC(C)n1nc(-c2ccc3oc(N)nc3c2)c2c(N)ncnc21` [Sapanisertib] the drug sensitivity score (FMOC22) was 11.7, the drug sensitivity score (FMOC24) was 7.7 and the drug sensitivity score (FMOC02_3) was 20.3. The drug sensitivity score (FMOC03) was 13.7, the drug sensitivity score (FMOC09) was 8.7 and the drug sensitivity score (FMOC06) was 12.9. The drug sensitivity score (FMOC14) was 9.5, the drug sensitivity score (FMOC25_2) was 18.1 and the drug sensitivity score (FMOC02_2) was 18.5.

`Nc1nc2cc(-c3ccc4ncc(C(=O)N5CCOCC5)n4c3)ccc2o1` [Serabelisib] was tested, and the drug sensitivity score (FMOC22) was 2.1, the drug sensitivity score (FMOC24) was 0 and the drug sensitivity score (FMOC02_3) was 7.2. It also gave a drug sensitivity score (FMOC03) of 3, a drug sensitivity score (FMOC09) of 1.3 and a drug sensitivity score (FMOC06) of 3.5. The drug sensitivity score (FMOC14) was 0.1, the drug sensitivity score (FMOC25_2) was 6.7 and the drug sensitivity score (FMOC02_2) was 6.6.

Work on `COc1cc2c(Nc3ccc(Cl)c(Cl)c3F)ncnc2cc1OC[C@@H]1C[C@@H]2CN(C)C[C@@H]2C1` [Tesevatinib] yielded a drug sensitivity score (FMOC22) of 2, a drug sensitivity score (FMOC24) of 2.4 and a drug sensitivity score (FMOC02_3) of 21. For the same compound, the drug sensitivity score (FMOC03) was 18.9, the drug sensitivity score (FMOC09) was 16.3 and the drug sensitivity score (FMOC06) was 4.4. It also gave a drug sensitivity score (FMOC14) of 6.5, a drug sensitivity score (FMOC25_2) of 18.5 and a drug sensitivity score (FMOC02_2) of 20.6.

`Nc1cc(F)ccc1NC(=O)c1ccc(CNC(=O)/C=C/c2cccnc2)cc1` [Tucidinostat] gave a drug sensitivity score (FMOC22) of 4.4, a drug sensitivity score (FMOC24) of 9 and a drug sensitivity score (FMOC02_3) of 5.5. It also gave a drug sensitivity score (FMOC03) of 7.7, a drug sensitivity score (FMOC09) of 0.8 and a drug sensitivity score (FMOC06) of 8.1. For the same compound, the drug sensitivity score (FMOC14) was 7.4, the drug sensitivity score (FMOC25_2) was 4.3 and the drug sensitivity score (FMOC02_2) was 6.2.

With `C=CC(=O)N1CC/C(=C\c2ccc(F)c([N+](=O)[O-])c2)C(=O)/C(=C/c2ccc(F)c([N+](=O)[O-])c2)C1` [VLX1570] the drug sensitivity score (FMOC22) was 10.7, the drug sensitivity score (FMOC24) was 15.4 and the drug sensitivity score (FMOC02_3) was 25. It also gave a drug sensitivity score (FMOC03) of 15.2, a drug sensitivity score (FMOC09) of 23 and a drug sensitivity score (FMOC06) of 18.2. It also gave a drug sensitivity score (FMOC14) of 14.8, a drug sensitivity score (FMOC25_2) of 14.7 and a drug sensitivity score (FMOC02_2) of 22.3.

`CNC(=O)c1cccc(-c2ccc3c(N4CCOC[C@@H]4C)nc(N4CCOC[C@@H]4C)nc3n2)c1` [Vistusertib] showed a drug sensitivity score (FMOC22) of 9.7, a drug sensitivity score (FMOC24) of 8.35 and a drug sensitivity score (FMOC02_3) of 21.6. For the same compound, the drug sensitivity score (FMOC03) was 13.1, the drug sensitivity score (FMOC09) was 8.9 and the drug sensitivity score (FMOC06) was 14.8. It also gave a drug sensitivity score (FMOC14) of 12.6, a drug sensitivity score (FMOC25_2) of 18.2 and a drug sensitivity score (FMOC02_2) of 20.9.

Work on `Cc1sc2c(c1C)C(c1ccc(Cl)cc1)=N[C@@H](CC(=O)NCCCCNC(=O)COc1cccc3c1C(=O)N(C1CCC(=O)NC1=O)C3=O)c1nnc(C)n1-2` (some centres undefined) [dBET1] yielded a drug sensitivity score (FMOC22) of 3.8, a drug sensitivity score (FMOC24) of 0.2 and a drug sensitivity score (FMOC02_3) of 8.6. The drug sensitivity score (FMOC03) was 4.5, the drug sensitivity score (FMOC09) was 4.5 and the drug sensitivity score (FMOC06) was 12.9. For the same compound, the drug sensitivity score (FMOC14) was 8.9, the drug sensitivity score (FMOC25_2) was 0.3 and the drug sensitivity score (FMOC02_2) was 8.8.
